Starred links: 1 amine or outer side, 2 acyl side, 3 side chain; linkers in the order of their positions; H or OH if unused. Positions of bridges follow the written chain, without caps; N, C: chain ends. Non-standard residues stand in square brackets, D forms with d. Residues, ends and D or L forms follow the SMILES beside them. *: point of attachment. hPhe(3,5-F2-4-CF3) = N[C@@H](CCc1cc(F)c(C(F)(F)F)c(F)c1)C(=O)O; hPhe(3-Cl-4-CF3) = N[C@@H](CCc1ccc(C(F)(F)F)c(Cl)c1)C(=O)O; NMePhe(4-CF3) = CN[C@@H](Cc1ccc(C(F)(F)F)cc1)C(=O)O; NEtPhe(4-Me) = CCN[C@@H](Cc1ccc(C)cc1)C(=O)O; NMePhe(4-Cl) = CN[C@@H](Cc1ccc(Cl)cc1)C(=O)O; NMePhe(4-Me) = CN[C@@H](Cc1ccc(C)cc1)C(=O)O; NMedβ3hAla = C[C@H](CC(=O)[*:2])N(C)[*:1]; X32 = O=C(CN(CCN1CCC(F)(F)CC1)[*:1])[*:2]; NMeGly(cPent) = CN[C@H](C(=O)O)C1CCCC1; Phe(3-I) = N[C@@H](Cc1cccc(I)c1)C(=O)O; Pro(4,4-F2) = O=C(O)[C@@H]1CC(F)(F)CN1; Ala(cPent) = N[C@@H](CC1CCCC1)C(=O)O; Phe(2-F) = N[C@@H](Cc1ccccc1F)C(=O)O; NMeCha = CN[C@@H](CC1CCCCC1)C(=O)O; hhPhe = N[C@@H](CCCc1ccccc1)C(=O)O; Hyp = O=C(O)[C@@H]1C[C@@H](O)CN1; NMeChg = CN[C@H](C(=O)O)C1CCCCC1; NMeF = CN[C@@H](Cc1ccccc1)C(=O)O; NMeI = CC[C@H](C)[C@H](NC)C(=O)O; NMeD = CN[C@@H](CC(=O)O)C(=O)O; NMeL = CN[C@@H](CC(C)C)C(=O)O; NMeV = CN[C@H](C(=O)O)C(C)C; d(β3hA) = C[C@@H](N)CC(=O)O; NMeS = CN[C@@H](CO)C(=O)O; NMeA = CN[C@@H](C)C(=O)O; NMeAib = CNC(C)(C)C(=O)O; Piperidide = C1CCN(*)CC1; Ac5c = NC1(C(=O)O)CCCC1; Aze = O=C(O)[C@@H]1CCN1; Ac4c = NC1(C(=O)O)CCC1; Aib = CC(C)(N)C(=O)O; Sar = CNCC(=O)O
Target: T1, Kras and SOS1 (biotin-tagged human Kras loaded with GDP, His-tagged human SOS1) (Homo sapiens, UniProt P01116, G12D)
T1 construct: made in house; host or cells: E. coli (stated for Kras only)
T1 sequence (P01116 1-188 isoform P01116-2 G12D): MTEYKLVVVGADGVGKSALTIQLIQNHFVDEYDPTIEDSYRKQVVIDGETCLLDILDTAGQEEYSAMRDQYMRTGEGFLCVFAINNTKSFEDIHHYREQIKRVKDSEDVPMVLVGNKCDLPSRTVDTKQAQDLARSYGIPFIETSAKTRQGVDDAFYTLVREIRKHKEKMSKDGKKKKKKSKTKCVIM
Experiment: Protein-protein interaction inhibition between Kras and SOS1 (KrasGl2D-SOS PPI) using AlphaScreen
Assay type: binding
Settings: AlphaScreen; biotin-tagged human Kras loaded with GDP, His-tagged human SOS1; read-out: KRAS G12D-SOS PPI IC50
How it was run: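 Donor beads (nickel) hold His-SOS1; acceptor beads (streptavidin) hold biotin-Kras bound to GDP. Signal measured at 520-620 nm following 680 nm excitation.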

SMILES	IC50
CCO[C@@H]1C[C@H]2C(=O)NC3(CCC3)C(=O)N(C)[C@@H]([C@@H](C)CC)C(=O)N(C)[C@H](C)CC(=O)N(C)[C@@H](CC(C)C)C(=O)N[C@@H]([C@@H](C)CC)C(=O)N(C)[C@@H](C)C(=O)N3CC[C@H]3C(=O)N(CC)[C@@H](Cc3ccc(C)cc3)C(=O)N(C)CC(=O)N[C@@H](CCc3ccc(C(F)(F)F)c(Cl)c3)C(=O)N2C1 [Compound 626] (cyclo([Ac4c][NMeI][NMedβ3hAla][NMeL]I[NMeA][Aze][NEtPhe(4-Me)][Sar][hPhe(3-Cl-4-CF3)][Hyp](Et)))	2.4 nM
CC(C)C[C@H]1C(=O)N[C@@H](CC2CCCC2)C(=O)N(C)CC(=O)N(C)CC(=O)N(C)[C@@H](CC2CCCCC2)C(=O)N(C)CC(=O)N[C@@H](CCc2ccc(C(F)(F)F)c(Cl)c2)C(=O)N2CCC[C@H]2C(=O)NC2(CCCC2)C(=O)N(C)[C@@H](C(C)C)C(=O)N(C)[C@H](C(=O)N2CCCCC2)CC(=O)N1C [Compound 627] ([NMeL][Ala(cPent)][Sar][Sar][NMeCha][Sar][hPhe(3-Cl-4-CF3)]P[Ac5c][NMeV][NMeD]-Piperidide; lactam N-11)	13 nM
CC[C@H](C)[C@@H]1NC(=O)[C@H](CC(C)C)N(C)C(=O)C[C@@H](C)N(C)C(=O)[C@H](C2CCCC2)N(C)C(=O)C2(CCCC2)NC(=O)[C@@H]2CC(F)(F)CN2C(=O)[C@H](CCc2cc(F)c(C(F)(F)F)c(F)c2)NC(=O)CN(C)C(=O)[C@H](CC2CCCCC2)N(C)C(=O)[C@@H]2CCN2C(=O)[C@H](C)N(C)C1=O [Compound 628] (cyclo([Ac5c][NMeGly(cPent)][NMedβ3hAla][NMeL]I[NMeA][Aze][NMeCha][Sar][hPhe(3,5-F2-4-CF3)][Pro(4,4-F2)]))	20 nM
CC[C@H](C)[C@@H]1NC(=O)[C@H](CC(C)C)N(C)C(=O)C[C@@H](C(=O)N2CCCCC2)N(C)C(=O)[C@H]([C@@H](C)CC)N(C)C(=O)C2(CCCC2)NC(=O)[C@@H]2CCCN2C(=O)[C@H](CCc2ccc(C(F)(F)F)c(Cl)c2)NC(=O)CN(C)C(=O)[C@H](Cc2ccc(C(F)(F)F)cc2)N(C)C(=O)[C@@H]2CCN2C(=O)[C@H](C)N(C)C1=O [Compound 630] ([NMeL]I[NMeA][Aze][NMePhe(4-CF3)][Sar][hPhe(3-Cl-4-CF3)]P[Ac5c][NMeI][NMeD]-Piperidide; lactam N-11)	1.7 nM
CC[C@H](C)[C@@H]1NC(=O)[C@H](C)N(C)C(=O)C[C@@H](C(=O)N2CCCCC2)N(C)C(=O)[C@H](C2CCCCC2)N(C)C(=O)C2(CCCC2)NC(=O)[C@@H]2CCCN2C(=O)[C@H](CCCc2ccccc2)NC(=O)CN(C)C(=O)[C@H](CC2CCCCC2)N(C)C(=O)CN(C)C(=O)CN(C)C1=O [Compound 633] ([NMeA]I[Sar][Sar][NMeCha][Sar][hhPhe]P[Ac5c][NMeChg][NMeD]-Piperidide; lactam N-11)	120 nM
CC[C@H](C)[C@@H]1NC(=O)[C@H](CC(C)C)N(C)C(=O)C[C@@H](C)NC(=O)[C@H](C(C)C)N(C)C(=O)C2(CCCC2)NC(=O)[C@@H]2CCCN2C(=O)[C@H](CCc2ccc(C(F)(F)F)c(Cl)c2)NC(=O)CN(C)C(=O)[C@H](CC2CCCCC2)N(C)C(=O)CN(C)C(=O)CN(CCN2CCC(F)(F)CC2)C1=O [Compound 635] (cyclo([Ac5c][NMeV][d(β3hA)][NMeL]I[X32][Sar][NMeCha][Sar][hPhe(3-Cl-4-CF3)]P))	190 nM
CC[C@H](C)[C@@H]1NC(=O)[C@H](COC)N(C)C(=O)C[C@@H](C(=O)N2CCCCC2)N(C)C(=O)[C@H](C(C)C)N(C)C(=O)C2(CCCC2)NC(=O)[C@@H]2CCCN2C(=O)[C@H](CCc2ccc(C(F)(F)F)c(Cl)c2)NC(=O)CN(C)C(=O)[C@H](CC2CCCCC2)N(C)C(=O)[C@@H]2CCN2C(=O)[C@H](C)N(C)C1=O [Compound 636] ([NMeS](Me)I[NMeA][Aze][NMeCha][Sar][hPhe(3-Cl-4-CF3)]P[Ac5c][NMeV][NMeD]-Piperidide; lactam N-11)	1.1 nM
CC[C@H](C)[C@@H]1NC(=O)[C@H](C)N(C)C(=O)C[C@@H](C(=O)N2CCCCC2)NC(=O)[C@H](CC(C)C)N(C)C(=O)[C@H](Cc2ccccc2)N(C)C(=O)[C@H](CC(C)C)NC(=O)[C@H](Cc2cccc(I)c2)NC(=O)CN(C)C(=O)[C@H](Cc2ccc(Cl)cc2)N(C)C(=O)CN(C)C(=O)CN(C)C1=O [Compound 637] ([NMeA]I[Sar][Sar][NMePhe(4-Cl)][Sar][Phe(3-I)]L[NMeF][NMeL]D-Piperidide; lactam N-11)	26 nM
CC[C@H](C)[C@@H]1NC(=O)[C@H](CC(C)C)N(C)C(=O)C[C@@H](C(=O)N2CCCCC2)N(C)C(=O)[C@H](CC(C)C)NC(=O)C(C)(C)N(C)C(=O)[C@H](Cc2ccccc2F)NC(=O)[C@H](Cc2cccc(I)c2)NC(=O)CN(C)C(=O)[C@H](Cc2ccc(C)cc2)N(C)C(=O)[C@@H]2CCN2C(=O)CN(C)C1=O [Compound 638] ([NMeL]I[Sar][Aze][NMePhe(4-Me)][Sar][Phe(3-I)][Phe(2-F)][NMeAib]L[NMeD]-Piperidide; lactam N-11)	45 nM
CC[C@H](C)[C@@H]1NC(=O)[C@H](CC(C)C)N(C)C(=O)C[C@@H](C)NC(=O)[C@H](C(C)C)N(C)C(=O)C(C)(C)NC(=O)[C@@H]2CCCN2C(=O)[C@H](CCc2ccc(C(F)(F)F)c(Cl)c2)NC(=O)CN(C)C(=O)[C@H](CC2CCCCC2)N(C)C(=O)CN(C)C(=O)CN(C)C1=O [Compound 641] (cyclo([Aib][NMeV][d(β3hA)][NMeL]I[Sar][Sar][NMeCha][Sar][hPhe(3-Cl-4-CF3)]P))	18 nM
